# From ChEMBL document CHEMBL3745645, “Synthesis, in vitro antitumor activity, dihydrofolate reductase inhibition, DNA intercalation and structure-activity relationship studies of 1,3,5-triazine analogues” (Bioorg Med Chem Lett, 2016)
# Active and inactive are the calls of the source. The rule behind the calls is not given here.
# Legend:
# Type in all cases: functional
# [1] = Cytotoxicity against human RPMI8226 cells at 10 uM after 48 hrs by SRB assay; conditions: RPMI-8226, 48 h, read-out: GI
# SR = assay: Cytotoxicity against human SR cells at 10 uM after 48 hrs by SRB assay; conditions: read-out: GI
# Malme-3M = assay: Cytotoxicity against human MALME-3M cells at 10 uM after 48 hrs by SRB assay
# NCI-H522 = assay: Cytotoxicity against human NCI-H522 cells at 10 uM after 48 hrs by SRB assay
# SN12C = assay: Cytotoxicity against human SN12C cells at 10 uM after 48 hrs by SRB assay; conditions: read-out: GI
# T47D = assay: Cytotoxicity against human T47D cells at 10 uM after 48 hrs by SRB assay; conditions: read-out: GI
# [2] = Cytotoxicity against human HOP62 cells at 10 uM after 48 hrs by SRB assay; conditions: HOP-62, 48 h, read-out: GI
# NCI-H460 = assay: Cytotoxicity against human NCI-H460 cells at 10 uM after 48 hrs by SRB assay; conditions: NCI-H460, 48 h, read-out: GI
# MDA-MB-435 = assay: Cytotoxicity against human MDA-MB-435 cells at 10 uM after 48 hrs by SRB assay; conditions: MDA-MB-435, 48 h, read-out: GI
# [3] = Cytotoxicity against human PC3 cells at 10 uM after 48 hrs by SRB assay; conditions: PC-3, 48 h, read-out: GI
# M14 = assay: Cytotoxicity against human M14 cells at 10 uM after 48 hrs by SRB assay
# KM12 = assay: Cytotoxicity against human KM12 cells at 10 uM after 48 hrs by SRB assay; conditions: KM12, 48 h, read-out: GI
# SK-MEL-28 = assay: Cytotoxicity against human SK-MEL-28 cells at 10 uM after 48 hrs by SRB assay
# SK-MEL-5 = assay: Cytotoxicity against human SK-MEL-5 cells at 10 uM after 48 hrs by SRB assay; conditions: SK-MEL-5, 48 h, read-out: GI
# [4] = Cytotoxicity against human OVCAR8 cells at 10 uM after 48 hrs by SRB assay; conditions: OVCAR-8, 48 h, read-out: GI
# [5] = Cytotoxicity against human OVCAR3 cells at 10 uM after 48 hrs by SRB assay; conditions: OVCAR-3, 48 h, read-out: GI
# [6] = Cytotoxicity against human Caki1 cells at 10 uM after 48 hrs by SRB assay; conditions: CAKI-1, 48 h, read-out: GI
# MDA-MB-468 = assay: Cytotoxicity against human MDA-MB-468 cells at 10 uM after 48 hrs by SRB assay; conditions: MDA-MB-468, 48 h, read-out: GI
# [7] = Cytotoxicity against human UO31 cells at 10 uM after 48 hrs by SRB assay; conditions: UO-31, 48 h, read-out: GI
# [8] = Cytotoxicity against human SF295 cells at 10 uM after 48 hrs by SRB assay; conditions: SF-295, 48 h, read-out: GI
# [9] = Cytotoxicity against human HL-60(TB) cells at 10 uM after 48 hrs by SRB assay; conditions: HL-60, 48 h, read-out: GI
# [10] = Cytotoxicity against human HCT116 cells at 10 uM after 48 hrs by SRB assay; conditions: HCT-116, 48 h, read-out: GI
# [11] = Cytotoxicity against human OVCAR4 cells at 10 uM after 48 hrs by SRB assay; conditions: OVCAR-4, 48 h, read-out: GI
# [12] = Cytotoxicity against human BT549 cells at 10 uM after 48 hrs by SRB assay; conditions: BT-549, 48 h, read-out: GI
# [13] = Cytotoxicity against human OVCAR5 cells at 10 uM after 48 hrs by SRB assay; conditions: OVCAR-5, 48 h, read-out: GI
# HT-29 = assay: Cytotoxicity against human HT-29 cells at 10 uM after 48 hrs by SRB assay; conditions: HT-29, 48 h, read-out: GI
# [14] = Cytotoxicity against human HCT15 cells at 10 uM after 48 hrs by SRB assay; conditions: HCT-15, 48 h, read-out: GI
# [15] = Cytotoxicity against human HOP92 cells at 10 uM after 48 hrs by SRB assay; conditions: HOP-92, 48 h, read-out: GI
# [16] = Cytotoxicity against human TK10 cells at 10 uM after 48 hrs by SRB assay; conditions: TK-10, 48 h, read-out: GI
# A498 = assay: Cytotoxicity against human A498 cells at 10 uM after 48 hrs by SRB assay; conditions: A498, 48 h, read-out: GI
# MDA-MB-231 = assay: Cytotoxicity against human MDA-MB-231 cells at 10 uM after 48 hrs by SRB assay; conditions: MDA-MB-231, 48 h, read-out: GI
# K562 = assay: Cytotoxicity against human K562 cells at 10 uM after 48 hrs by SRB assay; conditions: K562, 48 h, read-out: GI
# [17] = Cytotoxicity against human Hs 578T cells at 10 uM after 48 hrs by SRB assay; conditions: read-out: GI
# [18] = Cytotoxicity against human UACC62 cells at 10 uM after 48 hrs by SRB assay; conditions: UACC-62, 48 h, read-out: GI
# [19] = Cytotoxicity against human RXF393 cells at 10 uM after 48 hrs by SRB assay; conditions: RXF 393, 48 h, read-out: GI
# NCI-H226 = assay: Cytotoxicity against human NCI-H226 cells at 10 uM after 48 hrs by SRB assay; conditions: NCI-H226, 48 h, read-out: GI
# [20] = Cytotoxicity against human SNB75 cells at 10 uM after 48 hrs by SRB assay; conditions: SNB-75, 48 h, read-out: GI
# [21] = Cytotoxicity against human MOLT4 cells at 10 uM after 48 hrs by SRB assay; conditions: MOLT-4, 48 h, read-out: GI
# [22] = Cytotoxicity against human SF539 cells at 10 uM after 48 hrs by SRB assay; conditions: SF-539, 48 h, read-out: GI
# [23] = Cytotoxicity against human UACC257 cells at 10 uM after 48 hrs by SRB assay; conditions: UACC-257, 48 h, read-out: GI
# [24] = Cytotoxicity against human DU145 cells at 10 uM after 48 hrs by SRB assay; conditions: DU-145, 48 h, read-out: GI
# [25] = Cytotoxicity against human NCI-ADR-RES cells at 10 uM after 48 hrs by SRB assay; conditions: read-out: GI
# COLO 205 = assay: Cytotoxicity against human COLO205 cells at 10 uM after 48 hrs by SRB assay
# MCF7 = assay: Cytotoxicity against human MCF7 cells at 10 uM after 48 hrs by SRB assay; conditions: MCF7, 48 h, read-out: GI
# [26] = Cytotoxicity against human SKOV3 cells at 10 uM after 48 hrs by SRB assay; conditions: SK-OV-3, 48 h, read-out: GI
# [27] = Cytotoxicity against human HCC2998 cells at 10 uM after 48 hrs by SRB assay; conditions: HCC 2998, 48 h, read-out: GI
# SK-MEL-2 = assay: Cytotoxicity against human SK-MEL-2 cells at 10 uM after 48 hrs by SRB assay
# A549 = assay: Cytotoxicity against human A549 cells at 10 uM after 48 hrs by SRB assay; conditions: A549, 48 h, read-out: GI
# CCRF-CEM = assay: Cytotoxicity against human CCRF-CEM cells at 10 uM after 48 hrs by SRB assay; conditions: read-out: GI
# [28] = Cytotoxicity against human LOXIMVI cells at 10 uM after 48 hrs by SRB assay; conditions: LOX IMVI, read-out: GI
# [29] = Cytotoxicity against human IGROV1 cells at 10 uM after 48 hrs by SRB assay; conditions: IGROV-1, 48 h, read-out: GI
# ACHN = assay: Cytotoxicity against human ACHN cells at 10 uM after 48 hrs by SRB assay; conditions: read-out: GI
# [30] = Cytotoxicity against human SW620 cells at 10 uM after 48 hrs by SRB assay; conditions: SW-620, 48 h, read-out: GI
# [31] = Cytotoxicity against human SF268 cells at 10 uM after 48 hrs by SRB assay; conditions: SF-268, 48 h, read-out: GI
# 786-0 = assay: Cytotoxicity against human 786-0 cells at 10 uM after 48 hrs by SRB assay; conditions: 786-0, 48 h, read-out: GI
# [32] = Cytotoxicity against human SNB19 cells at 10 uM after 48 hrs by SRB assay; conditions: SNB-19, 48 h, read-out: GI
compound,measurement,setting,value
Cc1nc2cc(Nc3nc(Cl)nc(Nc4ccc(F)cc4)n3)ccc2n1Cc1ccccc1,inhibition of growth at 10 µM,[1],84.7%
same,inhibition of growth at 10 µM,SR,42.5%
same,growth inhibition (GI),Malme-3M,inactive
same,growth inhibition (GI),NCI-H522,Active
same,inhibition of growth at 10 µM,SN12C,22.1%
same,inhibition of growth at 10 µM,T47D,43%
same,inhibition of growth at 10 µM,[2],11.6%
same,inhibition of growth at 10 µM,NCI-H460,12%
same,inhibition of growth at 10 µM,MDA-MB-435,4.44%
same,inhibition of growth at 10 µM,[3],21.2%
same,growth inhibition (GI),M14,inactive
same,inhibition of growth at 10 µM,KM12,30.8%
same,growth inhibition (GI),SK-MEL-28,inactive
same,inhibition of growth at 10 µM,SK-MEL-5,7.59%
same,inhibition of growth at 10 µM,[4],18.5%
same,inhibition of growth at 10 µM,[5],5.75%
same,inhibition of growth at 10 µM,[6],12.3%
same,inhibition of growth at 10 µM,MDA-MB-468,23.8%
same,inhibition of growth at 10 µM,[7],19.3%
same,inhibition of growth at 10 µM,[8],3.61%
same,inhibition of growth at 10 µM,[9],46.8%
same,inhibition of growth at 10 µM,[10],96.1%
same,inhibition of growth at 10 µM,[11],14.2%
same,inhibition of growth at 10 µM,[12],9.39%
same,inhibition of growth at 10 µM,[13],3.73%
same,inhibition of growth at 10 µM,HT-29,5.46%
same,inhibition of growth at 10 µM,[14],27.9%
same,inhibition of growth at 10 µM,[15],49.3%
same,inhibition of growth at 10 µM,[16],41.5%
same,inhibition of growth at 10 µM,A498,30.6%
same,inhibition of growth at 10 µM,MDA-MB-231,17.9%
same,inhibition of growth at 10 µM,K562,14.8%
same,inhibition of growth at 10 µM,[17],20.5%
same,inhibition of growth at 10 µM,[18],17.6%
same,inhibition of growth at 10 µM,[19],22.9%
same,inhibition of growth at 10 µM,NCI-H226,19.6%
same,inhibition of growth at 10 µM,[20],10%
same,inhibition of growth at 10 µM,[21],9.41%
same,inhibition of growth at 10 µM,[22],29.8%
same,inhibition of growth at 10 µM,[23],10.3%
same,inhibition of growth at 10 µM,[24],36%
same,inhibition of growth at 10 µM,[25],4.36%
same,growth inhibition (GI),COLO 205,inactive
same,inhibition of growth at 10 µM,MCF7,38.5%
same,inhibition of growth at 10 µM,[26],4.12%
same,inhibition of growth at 10 µM,[27],5.54%
same,growth inhibition (GI),SK-MEL-2,inactive
same,inhibition of growth at 10 µM,A549,13.3%
same,inhibition of growth at 10 µM,CCRF-CEM,21.5%
same,inhibition of growth at 10 µM,[28],56.7%
same,inhibition of growth at 10 µM,[29],17%
same,inhibition of growth at 10 µM,ACHN,63.8%
same,inhibition of growth at 10 µM,[30],15.2%
same,inhibition of growth at 10 µM,[31],8.93%
same,inhibition of growth at 10 µM,786-0,67%
same,inhibition of growth at 10 µM,[32],7.64%
